Source: US5665390A, “Stabilized tablet formulation” (SmithKline Beecham Corporation, priority 1993, dated 1997)

Columns and labels:
[1] = stability of compound in blends/granulations versus compressed tablets; degradation products analyzed by LC/MS; assay type: physicochemical; conditions: compressed into direct compression or wet granulation tablets with excipients
Text: Although stable when blended or granulated with one or more commonly used pharmaceutical excipients such as, for example, lactose, tribasic calcium phosphate, silicon dioxide, corn starch, sodium starch glycolate, hydroxypropyl cellulose, hydroxypropyl methylcellulose, gelatin, magnesium stearate, microcrystalline cellulose, mannitol, and sorbitol, substituted 3,5-diene steroidal compounds were unexpectedly found to undergo a significant increase in the rate of formation of degradation products when compressed into tablets with such pharmaceutical excipients. This increase in degradation products occurs whether the substituted 3,5-diene steroidal compound and said excipients are formulated in direct compression tablets or in wet granulation tablets.

[2] = test system: steroid 5-α-reductase; conditions: cited from earlier work
[3] = Accelerated Stability Screening Method (tablets stored at 85° C., degradation by HPLC); conditions: additive to tablets of substituted 3,5-diene steroidal compounds
Procedure: The stability of N-t-butyl-androst-3,5-diene-17β-carboxamide-3-carboxylic acid (compound A) in various tablet formulations was determined by HPLC analysis.
In Experiment 1 Compound A, microcrystalline cellulose, lactose, corn starch and sodium starch glycolate shown in Table I below, were mixed in the proportions shown. […] The tablets thus prepared were placed in stability chamber at 85° and the results of the stability test were recorded in Table 2 below.
The tablets thus prepared were placed in stability chamber at 85° C. and the results of the stability test were recorded in Table 3 below.
The tablets thus prepared were placed in stability chamber at 85° C. and the results of the stability test were recorded in Table 5 below.
In Experiment 4 Standard Granulation and BHT (for Batch 8) shown in Table 6 below, or stearic acid and BHT (for Batch 9) shown in Table 7 below, were mixed and granulated in the proportions shown and compressed into tablets of about 350 mg total tablet weight. The tablets thus prepared were placed in stability chamber at 85° C. and the results of the stability test were recorded in Tables 6 and 7 below.
The tablets thus prepared were placed in stability chamber at 85° C. and the results of the stability test were recorded in Table 8 below. […]

SMILES | formation of degradation products when compressed into tablets [1] | inhibition of steroid 5-α-reductase [2] | stabilizing effect on tablets (percentage of degradation products) [3]
CC(C)(C)NC(=O)[C@H]1CC[C@H]2[C@@H]3CC=C4C=C(C(=O)O)CC[C@]4(C)[C@H]3CC[C@]12C [Compound A, N-t-butyl-androst-3,5-diene-17β-carboxamide-3-carboxylic acid] | oxidative additions (the 7 keto oxidation product and others) which only occurred when blends or granulations of Compound A were compressed into tablets | useful in inhibiting steroid 5αreductase | 
CCCCCCCCCCCCCCCCCC(=O)O [magnesium stearate] |  |  | do not exhibit such activity
